Source: the NIST ThermoML archive (doi:10.1021/je700290j)

Key:
[1] = xn = mol fraction of the nth substance listed; conditions: 293.15 K; for surface tension liquid-gas: Ring tensiometer; for speed of sound / mass density / viscosity: 101 kPa, Liquid; for speed of sound: Sing-around technique in a fixed-path interferometer
[2] = for surface tension liquid-gas: Ring tensiometer; for mass density / viscosity / speed of sound: 101 kPa, Liquid; for speed of sound: Sing-around technique in a fixed-path interferometer

C1CCNC1 [pyrrolidine] + C1CCNCC1
[1]
Conditions | mass density [kg/m3] | speed of sound [m/s] | surface tension liquid-gas [mN/m] | viscosity [mPa·s]
x2 = 0 | 863.81 | 1384.4 | 30.11 | 1.551
x2 = 0.1043 | 863.61 | 1385.4 | 30.36 | 1.457
x2 = 0.2304 | 863.4 | 1386.3 | 30.61 | 1.364
x2 = 0.496 | 862.79 | 1388.2 | 30.56 | 1.201
x2 = 0.6423 | 862.19 | 1390.1 | 30.51 | 1.038
x2 = 0.7053 | 861.89 | 1390.8 | 30.47 | 0.9752
x2 = 0.8273 | 861.6 | 1391.5 | 30.42 | 0.9124

C1CCNC1 [pyrrolidine]
[2]
Conditions | mass density [kg/m3] | speed of sound [m/s] | surface tension liquid-gas [mN/m] | viscosity [mPa·s]
293.15 K | 863.81 | 1384.4 | 30.11 | 1.551
298.15 K | – | – | 29.75 | –

C1CCNCC1 [piperidine]
[2]
Conditions | mass density [kg/m3] | speed of sound [m/s] | surface tension liquid-gas [mN/m] | viscosity [mPa·s]
293.15 K | 859.87 | 1389.4 | 30.27 | 0.8207
298.15 K | – | – | 29.56 | –

C1CCNCC1 [piperidine] + C1CCNC1
[1], x1 = 1
Conditions | mass density [kg/m3] | speed of sound [m/s] | surface tension liquid-gas [mN/m] | viscosity [mPa·s]
– | 859.87 | 1389.4 | 30.27 | 0.8207
